In data set [1] the test system is endometrial cancer cell lines. Kind of data set: MTT cell viability, endometrial cancer cell lines tested (Ishikawa and PCEM004A, stated jointly). It counts as cell-based, human. Conditions: endometrial cancer cell lines, individual phytocannabinoids. The method, then: (§1) Ishikawa is a well differentiated type I cell line, was purchased from Sigma Aldrich (Milan, Italy). Ishikawa cells were grown in EMEM medium (Lonza, Milan, Italy), supplemented with 5% fetal bovine serum (FBS), 2 mM/L of glutamine, 100 IU/ml of penicillin, and […] of streptomycin. Primary EC cells PCEM004A, poorly differentiated mixed type I/II cell line, was grown in RPMI1640, supplemented with 20% FBS, 2 mM/L of glutamine, 100 IU/ml of penicillin, and […] of streptomycin. Immortalized human endometriotic cell line (12Z) was generated by infecting cells, obtained from a person undergoing laparoscopy, with SV40 virus. This cell line was purchased by Applied Biological Materials Inc and was maintained in Prigrow III medium supplemented with 20% no-heat inactivated FBS, 100 IU/ml of penicillin and […] of streptomycin. Human pancreatic ductal adenocarcinoma PANC-1 cell line was purchased by Sigma Aldrich (Milan, Italy) and cultured in DMEM high glucose medium (EuroClone, Milan, Italy) supplemented with 10% FBS, 2 mM L-glutamine, 100 IU/mL penicillin, […] streptomycin and 1 mM sodium pyruvate. The human glioblastoma U251 cell line (grade IV), obtained from European Collection of Cell Cultures (ECACC, Salisbury, UK), was maintained in EMEM supplemented with 10% FBS, 2 mmol/L L-glutamine, 100 IU/mL penicillin and 100 μg streptomicin. Media were changed every 48 hours until cells were 90% confluent. All cell lines were maintained at 37 C with 5% CO2 and 95% humidity.
(§2) EC cell lines, PANC-1, U251, and 12Z (3×10^4 cells/ml) were plated in 96-well plates, in a final volume of 100 microl/well. After 24 hours, treatments or vehicles were added for 72 hours. At least six replicates were used for each treatment. At the indicated time point, cell viability was assessed by adding 0.8 mg/ml of 3-[4,5-dimethylthiazol-2-yl]-2,5 diphenyl tetrazolium bromide (MTT, Sigma-Aldrich) to the media. After 3 hours, the plates were centrifuged, the supernatant was removed, and the pellet was solubilized with 100 microl/well of DMSO. The absorbance of the samples against a background control (medium alone) was measured at 570 nm using an ELISA reader microliter plate (BioTek Instruments, Winooski, VT, United States). IC50 was calculated by PRISM 5.0a software, for single phytocannabinoids.

The subject of data set [2] is 12Z endometriotic cell line. Kind of data set: MTT cell viability assay, 12Z endometriotic cell line. Type of data set: cell-based, human. The settings on record: single administration, 72 hours post-treatment, FIG. 15-20. As to the method: as §1, §2
For a further data set, the system named is U251 cells. Kind of data set: MTT cell viability assay, U251 glioblastoma cell line. It counts as cell-based, human. The settings on record: U251, 72 hours post-treatment, FIG. 13. As to the method: as §1, §2
(In general: Formazan colour is commonly taken as a measure of viable cells.)

A further data set concerns PCEM004A cells. Kind of data set: MTT cell viability assay, primary mixed type PCEM004A endometrial cancer cell line. Conditions: 72 hours; for cytotoxicity (cell viability, % vs vehicle): phytocannabinoid alone, FIG. 5; for cytotoxicity (cell viability, % vs vehicle) in combination with chemotherapeutic drugs: with paclitaxel (PAC), doxorubicin (DOX) and cisplatin (CIS), FIG. 7-10. It counts as cell-based, human. As to the method: as §1, §2

Data set [3] concerns 12Z endometriotic cell line. Kind of data set: Transwell invasion assay, 12Z endometriotic cells. It counts as cell-based, human. The settings on record: non-cytotoxic dose, 24 hours, Transwell/Matrigel, major effect order THC>CBG>CBD>CBDV>CBN>CBC, FIG. 22-30. As to the method:
as §1
12Z cell invasion was evaluated by Transwell invasion assay using Transwell chambers (BD Biosciences, Franklin Lakes, NJ, USA) characterized by the upper face of the polycarbonate membrane covered with 1 mg/ml Matrigel. A total of 750 μl cell culture medium supplemented with 10% FBS was added in the lower chamber. Serum free culture medium ([…]) containing 2.5×10^4 12Z endometriotic cells was plated into the upper chamber with the appropriate treatment. After 24 hours of incubation, the cells remaining in the upper chamber were removed by cotton swabs. The cells on the lower and inner surface of the membrane were fixed in cold methanol, stained with hoechst and observed using a fluorescence microscope (BX51 fluorescence microscope, Olympus, Milan, Italy). A total of ten fields at ×10 magnification were selected at random to measure the average cell coverage using ImageJ software version 1.45s (National Institutes of Health, Bethesda, MD, USA). The experiments were performed in triplicate at least three times independently.

In the next data set the test system is Ishikawa cells. Kind of data set: MTT cell viability assay, Ishikawa type I endometrial cancer cell line. It counts as cell-based, human. Conditions: 72 hours; for cytotoxicity (cell viability, % vs vehicle) in combination: in double with cannabidiol (10, 15 and 20 microM CBD), FIG. 3-4; for cytotoxicity (cell viability, % vs vehicle): phytocannabinoid alone, FIG. 1; for cytotoxicity (cell viability, % vs vehicle) in combination with chemotherapeutic drugs: with paclitaxel (PAC), doxorubicin (DOX) and cisplatin (CIS), FIG. 7-10. The method, then:
as §1, §2

The test system of a further data set is PANC-1 cells. Kind of data set: MTT cell viability assay, PANC-1 pancreatic ductal adenocarcinoma cell line. Conditions: PANC-1, 72 hours post-treatment, FIG. 11. Type of data set: cell-based, human. The method, then:
as §1, §2

In the next data set the test system is CXCL8. Kind of data set: RT/PCR TaqMan array, CXCL8 gene expression in 12Z cells. It counts as cell-based, human. The settings on record: 48 hours, CBG, CBC, CBN 30 microM, CBD, CBDV 10 microM, THC 40 microM. As to the method: (§3) Total RNA from untreated or single treated 12Z cell line with CBD, CBG, CBC, CBN, CBDV and THC was extracted using Rneasy Mini kit (Qiagen, Milan, Italy). One microgram of total RNA from each sample was subjected to reverse transcription in a total volume of 20 μL using the High-Capacity cDNA Archive Kit (Applied Biosystem, Foster City, PA, USA) according to the instructions. cDNAs were analyzed by qRT-PCR performed using an IQ5 Multicolor Real time PCR Detection system. Quantitative real-time gene expression was performed with the TaqMan® Array Plate, containing 15 associated cytokine genes and beta-actin as endogenous control gene, was purchased (Thermo Fisher, Grand Island, NY, USA) and used to evaluate the treatments in modulating 12Z-related genes. Measurement of housekeeping gene (beta-Actin) on the samples was used to normalize mRNA content. The gene expression levels of treated cell lines were expressed as normalized fold compared with vehicle-treated cells.
Background: Real-time PCR tracks product formation cycle by cycle.

A further data set deals with IL-1beta. Kind of data set: RT/PCR TaqMan array, IL-1beta gene expression in 12Z cells. It counts as cell-based, human. Conditions: 48 hours, CBG, CBC, CBN 30 microM, CBD, CBDV 10 microM, THC 40 microM. The method, then: as §3
The next data set has as its system IL-33. Kind of data set: RT/PCR TaqMan array, IL-33 gene expression in 12Z cells. Type of data set: cell-based, human. The settings on record: 48 hours, CBG, CBC, CBN 30 microM, CBD, CBDV 10 microM, THC 40 microM. The method, then:
as §3

The subject of data set [4] is type I cells and mixed type endometrial cancer cell lines. Conditions: cited from earlier work.
The subject of another data set is STAT-3. Kind of data set: RT/PCR TaqMan array, STAT-3 gene expression in 12Z cells. It counts as cell-based, human. Conditions: 48 hours, CBG, CBC, CBN 30 microM, CBD, CBDV 10 microM, THC 40 microM. The method, then: as §3
The next data set concerns IL-6. Kind of data set: RT/PCR TaqMan array, IL-6 gene expression in 12Z cells. It counts as cell-based, human. The settings on record: 48 hours, CBG, CBC, CBN 30 microM, CBD, CBDV 10 microM, THC 40 microM. The method, then:
as §3

The text below walks through data of patent publication US20240299424A1, “USE OF PHYTOCANNABINOIDS FOR TREATING ENDOMETRIAL CANCER AND ENDOMETRIOSIS” (INTEGRATIVE THERAPY DISCOVERY LAB S.R.L., priority 2021, published 2024).

For the compound `CCCCCc1cc(O)c(C/C=C(\C)CCC=C(C)C)c(O)c1` [CBG, 2-[(2E)-3,7-dimethylocta-2,6-dienyl]-5-pentylbenzene-1,3-diol], the “dose dependence of effect on cell viability” value (“dose dependence of effect” for short) in data set [1] is listed as “dose dependent effect”. Also, the “cytotoxicity (cell viability, % vs vehicle)” value (in data set [2]; in the data set with U251 cells; with PCEM004A cells; in the data set with Ishikawa cells; in the data set on PANC-1 cells) was “induced cytotoxicity” throughout. The “cytotoxicity (cell viability, % vs vehicle) in combination with chemotherapeutic drugs” value with PCEM004A cells and with Ishikawa cells was “induced cytotoxicity” each time. In addition, the endometriosis cell invasion entry in data set [3] is given as “effective in reducing endometriosis cells invasion”. In the data set with Ishikawa cells, the “cytotoxicity (cell viability, % vs vehicle) in combination” value is reported as “induced cytotoxicity”. Further, in the data set with CXCL8, the “CXCL8 gene expression (normalized versus vehicle)” value is reported as “reduced”. In the data set on IL-1beta, the “IL-1beta gene expression (normalized versus vehicle)” value was “reduced”. For the same compound, the “IL-33 gene expression (normalized versus vehicle)” value in the data set on IL-33 is “reduced”.
With `C=C(C)[C@@H]1CCC(C)=C[C@H]1c1c(O)cc(CCCCC)cc1O` [CBD, 2-[(1R,6R)-3-methyl-6-prop-1-en-2-ylcyclohex-2-en-1-yl]-5-pentylbenzene-1,3-diol, reference compound], the “dose dependence of effect” value in [1] is listed as “dose dependent effect”. For the same compound, the chemotherapeutic drugs cytotoxicity result in data set [4] (endometrial cancer cell lines) was “improves chemotherapeutic drugs cytotoxicity”. Also, the cell viability result in data set [4] (type I cells (cell death) and mixed type endometrial cancer cell lines (autophagy)) was “reduces cell viability”. For the same compound, in the data set with STAT-3, the “STAT-3 gene expression (normalized versus vehicle)” value was “reduced”. In addition, the “cytotoxicity (cell viability, % vs vehicle)” value in [2] is reported as “induced cytotoxicity”. For the same compound, the endometriosis cell invasion result in data set [3] is on record as “effective in reducing endometriosis cells invasion”. Further, the “IL-6 gene expression (normalized versus vehicle)” value in the data set with IL-6 was “reduced”. In the data set on CXCL8, the “CXCL8 gene expression (normalized versus vehicle)” value is listed as “reduced”. For the same compound, the “IL-1beta gene expression (normalized versus vehicle)” value with IL-1beta is listed as “reduced”. Also, the “IL-33 gene expression (normalized versus vehicle)” value in the data set on IL-33 is recorded as “reduced”.
Take `C=C(C)[C@@H]1CCC(C)=C[C@H]1c1c(O)cc(CCC)cc1O` [CBDV, 2-[(1R,6R)-3-methyl-6-prop-1-en-2-ylcyclohex-2-en-1-yl]-5-propylbenzene-1,3-diol]: in [1], the “dose dependence of effect” value is reported as “dose dependent effect”. Also, the “cytotoxicity (cell viability, % vs vehicle)” value (in [2]; with U251 cells; in the data set with PCEM004A cells; with Ishikawa cells; in the data set on PANC-1 cells) was “induced cytotoxicity” throughout. For the same compound, the “cytotoxicity (cell viability, % vs vehicle) in combination with chemotherapeutic drugs” value in the data set on PCEM004A cells and in the data set on Ishikawa cells was “induced cytotoxicity” each time. For the same compound, the endometriosis cell invasion result in [3] is listed as “effective in reducing endometriosis cells invasion”. Further, in the data set on Ishikawa cells, the “cytotoxicity (cell viability, % vs vehicle) in combination” value is recorded as “induced cytotoxicity”. Further, the “IL-6 gene expression (normalized versus vehicle)” value in the data set on IL-6 is listed as “reduced”. The “CXCL8 gene expression (normalized versus vehicle)” value in the data set with CXCL8 is “reduced”. For the same compound, in the data set with IL-33, the “IL-33 gene expression (normalized versus vehicle)” value is reported as “reduced”.
